The values that follow come from publication PMC4804716 (The FEBS journal, 2015).

In data set [1] the target is T1, Schistosoma mansoni thioredoxin glutathione reductase (SmTGR) (Schistosoma mansoni, UniProt Q962Y6).
T1 sequence (Q962Y6 1-598): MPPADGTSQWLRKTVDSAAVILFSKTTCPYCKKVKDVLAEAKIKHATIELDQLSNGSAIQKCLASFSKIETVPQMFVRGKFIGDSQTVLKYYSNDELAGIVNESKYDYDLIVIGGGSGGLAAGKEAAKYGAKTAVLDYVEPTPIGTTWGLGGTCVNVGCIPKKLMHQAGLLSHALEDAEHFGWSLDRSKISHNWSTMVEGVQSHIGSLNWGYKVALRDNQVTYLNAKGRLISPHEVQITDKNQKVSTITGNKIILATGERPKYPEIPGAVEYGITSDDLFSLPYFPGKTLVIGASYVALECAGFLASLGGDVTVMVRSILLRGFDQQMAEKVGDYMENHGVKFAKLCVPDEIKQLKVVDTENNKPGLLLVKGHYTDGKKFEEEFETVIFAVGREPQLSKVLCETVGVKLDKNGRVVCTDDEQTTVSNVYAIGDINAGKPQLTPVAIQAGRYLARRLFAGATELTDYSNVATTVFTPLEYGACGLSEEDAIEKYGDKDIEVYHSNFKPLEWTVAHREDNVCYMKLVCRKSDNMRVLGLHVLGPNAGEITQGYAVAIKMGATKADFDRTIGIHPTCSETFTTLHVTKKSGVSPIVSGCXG
In words: SmTGR DTNB assay. Type of data set: biochemical.

In data set [2] the target is T2, Placenta wild type hTrxR (Homo sapiens, UniProt Q16881).
T2 sequence (Q16881 1-499 isoform Q16881-5): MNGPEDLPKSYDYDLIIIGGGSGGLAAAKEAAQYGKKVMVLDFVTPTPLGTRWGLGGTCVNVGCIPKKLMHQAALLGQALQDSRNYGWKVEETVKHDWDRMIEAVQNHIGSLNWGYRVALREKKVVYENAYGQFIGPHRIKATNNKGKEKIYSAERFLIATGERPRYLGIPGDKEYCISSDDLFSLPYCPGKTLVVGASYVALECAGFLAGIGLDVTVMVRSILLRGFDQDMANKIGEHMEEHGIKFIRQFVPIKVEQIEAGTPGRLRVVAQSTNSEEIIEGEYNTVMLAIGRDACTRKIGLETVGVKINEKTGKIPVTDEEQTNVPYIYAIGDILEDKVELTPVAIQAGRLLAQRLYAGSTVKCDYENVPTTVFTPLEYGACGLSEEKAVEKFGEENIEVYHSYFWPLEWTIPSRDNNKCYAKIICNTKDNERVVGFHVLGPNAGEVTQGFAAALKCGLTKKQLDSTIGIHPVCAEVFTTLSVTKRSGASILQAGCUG
In words: hTrxR DTNB assay. The class given is biochemical.

Data set [3] has as its target T3, human glutathione reductase (hGR) (Homo sapiens, UniProt P00390).
T3 sequence (P00390 1-479 isoform P00390-2): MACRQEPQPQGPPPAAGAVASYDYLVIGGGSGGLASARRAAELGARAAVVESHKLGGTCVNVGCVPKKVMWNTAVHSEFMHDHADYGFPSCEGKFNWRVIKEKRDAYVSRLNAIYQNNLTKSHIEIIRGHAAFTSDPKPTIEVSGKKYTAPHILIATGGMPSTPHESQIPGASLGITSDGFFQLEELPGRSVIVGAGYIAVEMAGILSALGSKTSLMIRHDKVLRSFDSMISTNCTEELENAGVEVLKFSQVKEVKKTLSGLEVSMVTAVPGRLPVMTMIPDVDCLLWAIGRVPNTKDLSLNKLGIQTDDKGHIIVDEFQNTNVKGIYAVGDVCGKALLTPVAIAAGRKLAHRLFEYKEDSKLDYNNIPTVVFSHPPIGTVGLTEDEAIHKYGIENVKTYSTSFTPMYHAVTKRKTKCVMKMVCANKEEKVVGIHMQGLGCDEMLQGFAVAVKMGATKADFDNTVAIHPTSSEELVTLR
The experiment in a line: hGR assay. Type of data set: biochemical.

A short description of data set [4]: Cyclic voltammetry of menadione derivatives. The following applies: for Epa1 / Epc2 / Ipc1/Ipa1 / E^1½ / ΔEp (first wave): DMSO; for Epa1 / Epc2: 0.1 M n-Bu4NPF6, v = 200 mV s^−1, reference KCl(3 M)/Ag/AgCl; for Epa1 / Ipc1/Ipa1 / E^1½: first wave; for Epc2 / E^2½ / Epa2 / Ipc2/Ipa2 / ΔEp (second wave): second wave; for Ipc1/Ipa1 / ΔEp (first wave): 0.1 M n-Bu4NPF6, v = 200 mV s^−1; for E^1½ / E^2½: E½ = (Epc+Epa)/2; for E^1½: 0.1 M n-Bu4NPF6, reference KCl(3 M)/Ag/AgCl; for E^2½ / Epa2 / Ipc2/Ipa2 / ΔEp (second wave): irr: irreversible reduction; for ΔEp (first wave) / ΔEp (second wave): ΔE = Epa-Epc. Type of data set: physicochemical.

The target of data set [5] is T2, Placenta wild type hTrxR. In words: hTrxR Trx assay. Type of data set: biochemical. To be noted: for IC50: IC50 hTrxR, text summary spanning the Trx assay and the DTNB assay.
Another data set has as its target T4, Sec498Cys TrxR (Homo sapiens, UniProt Q16881).
T4 sequence (Q16881 with tags, fused parts or gaps isoform Q16881-5): T2 sequence (Q16881 1-499 isoform Q16881-5) with U498C
The experiment in a line: hTrxR mutant DTNB assay. The class given is biochemical.

A further data set relates to S. mansoni worms. In words: Antischistosomal activity against adult, ex vivo worms. The class given is cell-based, Schistosoma mansoni. To be noted: for antischistosomal activity against cultured ex vivo worms: 50 μM compound alone.
Data set [6] in a line: Cytotoxicity against human MRC-5 cells. Type of data set: cell-based. To be noted: human lung MRC-5 fibroblasts (MRC-5SV2 cells).
Data set [7] can be described thus: Glutathionylation reaction kinetics. Type of data set: physicochemical. The following applies: pH 7.5.
[8] abbreviates: 50 μM with hemoglobin 10 μM, 22h incubation.

Each structure is given as a SMILES string. Changes are numbered by the printed parent chain. Where two headings read alike, the source gives them in different places.

As usually defined, the IC50 is the concentration at which inhibition is half-maximal.

With `CC1=C(COc2ccc(C(=O)O)cc2)C(=O)c2ccccc2C1=O` [Compound 1, 4-((3-Methyl-1,4-dioxo-1,4-dihydronaphthalen-2-yl)methoxy)benzoic acid], the half-maximal inhibitory concentration (IC50) in data set [1] turned out to be 482 nM. The IC50 on Placenta wild type hTrxR [2] amounted to 3000 nM. Besides, the half-maximal inhibitory concentration (IC50) in [3] is 2300 nM. Also, in data set [4], the Epa1 was −0.532 V, the Epc2 is given as −1.265 V, the Ipc1/Ipa1 turned out to be 1.27 and the “E^1½” value is given as −0.580 V. Besides, in data set [4], the “E^2½” value is on record as “irr”, the Epa2 entry is given as “irr”, the Ipc2/Ipa2 result is “irr” and the “ΔEp (first wave)” value is 96 mV. In addition, the “ΔEp (second wave)” value in data set [4] is “irr”. For the same compound, the IC50 on Placenta wild type hTrxR [5] fell in the range of 2000 to 3000 nM. Also, at Sec498Cys TrxR, the IC50 came out at 40000 nM. The “antischistosomal activity against cultured ex vivo worms” value (“antischistosomal activity” for short) in the data set on S. mansoni worms is reported as “able to kill cultured adult worms”. For the same compound, half-maximal inhibition in data set [6] (IC50 at 3 days) required 6550 nM.

In the case of `CC1=C(COc2ccc(C#N)cc2)C(=O)c2ccccc2C1=O` [Compound 2, 4-((3-Methyl-1,4-dioxo-1,4-dihydronaphthalen-2-yl)methoxy)benzonitrile], half-maximal inhibition in data set [1] (IC50) was put at 462 nM. Also, the IC50 against Placenta wild type hTrxR [2] was 1200 nM. Moreover, in data set [3], the midpoint of inhibition, the IC50, lay at 8500 nM. Besides, in data set [4], the Epa1 is reported as −0.492 V, the Epc2 is recorded as −1.154 V, the Ipc1/Ipa1 came out at 2.29 and the “E^1½” value is listed as −0.556 V. Besides, in data set [4], the “E^2½” value is −1.127 V, the Epa2 is listed as −1.100 V, the Ipc2/Ipa2 was found to be 2 and the “ΔEp (first wave)” value is recorded as 128 mV. The “ΔEp (second wave)” value in data set [4] was 54 mV. In data set [4] (ΔE½ = E^1½-E^2½), the ΔE½ is reported as 571 mV. The compound further gave an IC50 on Placenta wild type hTrxR [5] of 1200 to 1500 nM. For the same compound, inhibition against Sec498Cys TrxR was half-maximal at 6000 nM (IC50). The “antischistosomal activity” value in the data set with S. mansoni worms is on record as “(moderately) active”. In the data set with S. mansoni worms (setting [8]), the female worms killed turned out to be 100% and the male worms killed stood at 50%.

Turning to `COc1c(F)cc(OCC2=C(C)C(=O)c3ccccc3C2=O)cc1F` [Compound 3, 2-((3,5-Difluoro-4-methoxyphenoxy)methyl)-3-methylnaphthalene-1,4-dione], the IC50 is 407 nM in data set [1]; 2000 nM on Placenta wild type hTrxR [2]; over 25000 nM in [3]; 2000 nM against Placenta wild type hTrxR [5]; over 100000 nM at Sec498Cys TrxR. Besides, in the data set with S. mansoni worms, the “antischistosomal activity” value was “most potent”.

`CC1=C(COc2ccc(Cl)cc2)C(=O)c2ccccc2C1=O` [Compound 4, 2-((4-Chlorophenoxy)methyl)-3-methylnaphthalene-1,4-dione]: the half-maximal inhibitory concentration (IC50) in data set [1] is 457 nM; against Placenta wild type hTrxR [2] it was 700 nM; in [3], 5500 nM; against Placenta wild type hTrxR [5], 700 nM; at Sec498Cys TrxR, over 100000 nM.

In [1], `CC1=C(COc2ccc(Br)cc2)C(=O)c2ccccc2C1=O` [Compound 5, 2-((4-Bromophenoxy)methyl)-3-methylnaphthalene-1,4-dione] showed an IC50 of 784 nM. This compound yielded an IC50 on Placenta wild type hTrxR [2] of 800 nM. This compound also had an IC50 in [3] of over 5000 nM. Further, in [4], the Epc2 is on record as −1.158 V, the Ipc1/Ipa1 stood at 1.89, the “E^2½” value is on record as “irr” and the Epa2 result is reported as “irr”. In data set [4], the Ipc2/Ipa2 entry is “irr”, the “ΔEp (first wave)” value came to 119 mV and the “ΔEp (second wave)” value was “irr”. The same compound registered an IC50 at Placenta wild type hTrxR [5] of 800 nM. Besides, the IC50 against Sec498Cys TrxR was over 100000 nM.

For the compound `CC1=C(COc2cccc(C(F)(F)F)c2)C(=O)c2ccccc2C1=O` [Compound 6, 2-Methyl-3-((3-(trifluoromethyl)phenoxy)methyl)naphthalene-1,4-dione], the IC50 in data set [1] was 166 nM; against Placenta wild type hTrxR [2] it was 1500 nM; in data set [3], 600 nM; at Placenta wild type hTrxR [5] it was 1500 to 3000 nM; against Sec498Cys TrxR, over 50000 nM. The “IC50 fold higher for hTrxR than for SmTGR” value on Placenta wild type hTrxR [5] (selectivity hTrxR versus SmTGR) is listed as “around 10 fold”. Besides, the “antischistosomal activity” value in the data set with S. mansoni worms is “inactive”.

`N#Cc1ccc(OCC2=C(C(F)F)C(=O)c3ccccc3C2=O)cc1` [Compound 8, 4-((3-(Difluoromethyl)-1,4-dioxo-1,4-dihydronaphthalen-2-yl)methoxy)benzonitrile]: the “decrease of the k2 values compared to the difluoromenadione itself” value in data set [7] is given as about 10 fold. Further, the concentration for half-maximal inhibition (IC50) was 144 nM in [1]; 14 nM at Placenta wild type hTrxR [2]; 2100 nM in data set [3]; 13 to 14 nM against Placenta wild type hTrxR [5]; 370 nM on Sec498Cys TrxR. Further, in data set [4], the Epa1 is given as −0.244 V. The compound further showed an Ipc1/Ipa1 in [4] of 3.31. Also, the “E^1½” value in [4] is −0.329 V. Also, the “ΔEp (first wave)” value in [4] turned out to be 170 mV. In addition, in the data set with S. mansoni worms, the “antischistosomal activity” value is “inactive”. For the same compound, the “killing of worms whether RBCs were present or not” value in the data set with S. mansoni worms (50 μM, with or without human red blood cells (10 μl/well)) was “no effect on killing the worms”. It took 6700 nM to reach half-maximal inhibition in data set [6] (IC50 at 3 days).

On to `O.O.O.O=C([O-])[C@H]([O-])[C@@H]([O-])C(=O)[O-].O=C([O-])[C@H]([O-])[C@@H]([O-])C(=O)[O-].[K+].[K+].[Sb+3].[Sb+3]` [PAT, potassium antimonyl tartrate, reference compound], for which the IC50 in data set [1] (read-out: IC50 SmTGR assay, pH 7, 25°C, 100 μM NADPH, 3 mM DTNB) worked out at 173 nM. Further, the dead worms in the data set on S. mansoni worms (drug reference, after two days) is 100%.
